For six compounds, IC50 results are on record in ChEMBL document CHEMBL1142693, “Design, synthesis, and in vitro evaluation of dipeptide-based antibody minor groove binder conjugates” (J Med Chem, 2005).

Assay [1] deals with CAKI-1. Kind of assay: Inhibitory concentration againstHuman Caki-1 Renal CellCarcinoma Cell Lines (CD70+) at 96th hour; n=1. The class given is functional, cell-based. To be noted: Homo sapiens.
Assay [2] is described as follows: Inhibitory concentration againstHuman Karpas 299 Anaplastic Large Cell Lymphoma (CD30+) at 96th hour; n=9. The class given is functional, Homo sapiens.
Assay [3] can be described thus: Inhibitory concentration againstHuman Karpas 299 Anaplastic Large Cell Lymphoma (CD30+) at 4th hour; n=1. The class given is functional, Homo sapiens.
Another assay deals with NCI-H69. Kind of assay: Inhibitory concentration againstHuman cell lung carcinoma cell line NCI-H69; n=3. The class given is functional, cell-based, Homo sapiens.
Assay [4] can be described thus: Inhibitory concentration againstHuman cell lung carcinoma cell line NCI-H69/LX4; n=3. Type of assay: functional, cell-based, Homo sapiens.
Assay [5] deals with CAKI-1. Kind of assay: Inhibitory concentration againstHuman Caki-1 Renal CellCarcinoma Cell Lines (CD70+) at 4th hour; n=1. Type of assay: functional, cell-based. To be noted: Homo sapiens.
Assay [6] can be described thus: Inhibitory concentration againstHuman Karpas 299 Anaplastic Large Cell Lymphoma (CD30+) at 96th hour; n=1. Type of assay: functional, Homo sapiens.
In assay [7] the test system is CAKI-1. Kind of assay: Inhibitory concentration againstHuman Caki-1 Renal CellCarcinoma Cell Lines (CD70+) at 96th hour; n=14. The class given is functional, cell-based. To be noted: Homo sapiens.
The nature of assay [8]: Inhibitory concentration againstHuman Karpas 299 Anaplastic Large Cell Lymphoma (CD30+) at 96th hour; n=39. The class given is functional, Homo sapiens.

The term IC50 denotes the concentration needed to halve the response being measured. The low end stands for greater potency, the high end for weaker potency. For `COc1ccc(/C=C/C(=O)N2CC(CCl)c3c2cc(N)c2ccccc32)cc1` (stereo not given), the IC50 in the assay with CAKI-1 [1] worked out at 0.68 nM; in assay [2] it was 1.17 nM; in [3], 0.34 nM; with NCI-H69 (Homo sapiens, NCI-H69), 0.87 nM; in assay [4], 2.87 nM; with CAKI-1 [5], 0.59 nM.
Consider `COc1cc2c(c(OC)c1OC)NC(C(=O)N1CC(CCl)c3c1cc(O)c1ncccc31)C2` (stereo not given), for which the IC50 in the assay on CAKI-1 [1] was 0.45 nM; in [6], 0.18 nM; in assay [3], 0.28 nM; with CAKI-1 [5] it was 0.55 nM.
With `COc1ccc(/C=C/C(=O)N2CC(CCl)c3c2cc(NC(=O)C(CCCCN)NC(=O)C(NC(=O)CCOCCOCCOCCOCCNC(=O)CBr)C(C)C)c2ccccc32)cc1` (stereo not given), the IC50 worked out at 13.4 nM with NCI-H69 (Homo sapiens, NCI-H69) and 20.7 nM in assay [4].
As to `COc1cccc2c1C(=O)c1c(O)c3c(c(O)c1C2=O)C[C@@](O)(C(=O)CO)C[C@@H]3O[C@H]1C[C@H](N)[C@H](O)[C@H](C)O1` [DOXORUBICIN], the IC50 with NCI-H69 (Homo sapiens, NCI-H69) worked out at 11.3 nM; in [4], 1800 nM.
For the compound `CO[C@@]12[C@H](COC(N)=O)C3=C(C(=O)C(C)=C(N)C3=O)N1C[C@@H]1N[C@@H]12` [MITOMYCIN], the IC50 worked out at 40 nM in the assay on CAKI-1 [7], 525 nM in assay [3], 133 nM in [8] and 251 nM with CAKI-1 [5].
Turning to CISPLATIN, the results for the IC50 (in the assay on NCI-H69 (nci-h69); in assay [4]) were 683 nM and 2820 nM, respectively.
